Measurements as given in patent US8455497B2, “Inhibitors of aspartyl protease” (Vertex Pharmaceuticals Incorporated, priority 1999, dated 2013).
Like-named read-outs stand apart in the source and are kept apart here.

Legend:
[1] = system: HIV-1 (strain IIIB); assay: Antiviral activity assay in MT4 cells (propidium iodide based); assay type: cell-based
Summary of the method: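 Compound serial dilutions in RPMI/FCS received MT4 cells pre-infected 1 hr at 37°C with HIV-1 IIIB at 100×TCID50. After 5 days' culture and Nonidet-40 lysis, well DNA content was measured by propidium iodide dye; mock-infected cells served as control.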

[2] = system: EP13 multi protease inhibitor resistant virus; assay: Anti-viral activity against resistant virus EP13 in MT4 cells; assay type: cell-based, HIV-1
Summary of the method: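 MT4 cells infected for 1 h at 37 °C, MOI 100×TCID50, then diluted 6-fold onto pre-diluted compound and cultured 5 days (5% CO2). Viable-cell DNA content estimated by propidium iodide. EP13 carries protease mutations M46I, L63P, A71V, V82F/L, I84V, no RT mutations.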

[3] = system: D545701-14 multi protease inhibitor resistant virus; assay: Anti-viral activity against resistant virus D545701-14 in MT4 cells; assay type: cell-based, HIV-1
[4] = Human immunodeficiency virus 1, IIIB, wild type HIV-1 virus, MT4 cells, read-out: Wildtype virus - IC50
[5] = Human immunodeficiency virus 1, MT4, read-out: EP13 mutant IC50, EP13 multi protease inhibitor resistant virus, MT4 cells
[6] = Human immunodeficiency virus 1, MT4, read-out: D545701-14 mutant - IC50, D545701-14 multi protease inhibitor resistant virus, MT4 cells

| Compound | IC50 [1, 4] [nM] | IC50 [2, 5] [nM] | IC50 [3, 6] [nM] | also measured |
| --- | --- | --- | --- | --- |
| Cc1nc(COc2ccc(C[C@H](NC(=O)O[C@H]3CO[C@H]4OCC[C@H]43)[C@H](O)CN(CC(C)C)S(=O)(=O)c3ccc(O)c(C)c3)cc2)cs1 [Compound 348, (3R,3aS,6aR)-hexahydrofuro[2,3-b]furan-3-yl (1S,2R)-2-hydroxy-3-[[(4-hydroxy-3-methylphenyl)sulfonyl](isobutyl)amino]-1-{4-[(2-methyl-1,3-thiazol-4-yl)methoxy]benzyl}propylcarbamate] | 1 to 10 | 1 to 10 | 1 to 10 |  |
| Cc1noc(C)c1COc1ccc(C[C@H](NC(=O)O[C@H]2CO[C@H]3OCC[C@H]32)[C@H](O)CN(CC(C)C)S(=O)(=O)c2ccc3c(c2)OCO3)cc1 [Compound 385, (3R,3aS,6aR)-hexahydrofuro[2,3-b]furan-3-yl (1S,2R)-3-[(1,3-benzodioxol-5-ylsulfonyl)(isobutyl)amino]-1-{4-[(3,5-dimethyl-4-isoxazolyl)methoxy]benzyl}-2-hydroxypropylcarbamate] | 1 to 10 | 1 to 10 | 10 to 100 |  |
| CNC(=O)Oc1ccc(C[C@H](NC(=O)O[C@H]2CO[C@H]3OCC[C@H]32)[C@H](O)CN(CC(C)C)S(=O)(=O)c2ccc3c(c2)OCO3)cc1 [Compound 309, (3R,3aS,6aR)-Hexahydrofuro[2,3-b]furan-3-yl (1S,2R)-3-[(1,3-benzodioxol-5-ylsulfonyl)(isobutyl)amino]-2-hydroxy-1-(4-{[(methylamino)carbonyl]oxy}benzyl)propylcarbamate] | 1 to 10 |  |  | IC50 ([2]; Human immunodeficiency virus 1, MT4, read-out: EP13 mutant IC50): 1 to 10 nM; IC50 ([3]; Human immunodeficiency virus 1, MT4, read-out: D545701-14 mutant - IC50): 1 to 10 nM |
| CC(C)CN(C[C@@H](O)[C@H](Cc1ccc(OCCCCN)cc1)NC(=O)O[C@H]1CO[C@H]2OCC[C@H]21)S(=O)(=O)c1cccc(N)c1 [Compound 292] | 10 to 100 | 10 to 100 | 10 to 100 |  |
| CC(C)CN(C[C@@H](O)[C@H](Cc1ccc(OCCCO)cc1)NC(=O)O[C@H]1CO[C@H]2OCC[C@H]21)S(=O)(=O)c1ccc2c(c1)OCO2 [Compound 319, (3R,3aS,6aR)-Hexahydrofuro[2,3-b]furan-3-yl (1S,2R)-3-[(1,3-benzodioxol-5-ylsulfonyl)(isobutyl)amino]-2-hydroxy-1-[4-(3-hydroxypropoxy)benzyl]propylcarbamate] | 1 to 10 | 1 to 10 | 1 to 10 |  |
| CNC(=O)OCCOc1ccc(C[C@H](NC(=O)O[C@H]2CO[C@H]3OCC[C@H]32)[C@H](O)CN(CC(C)C)S(=O)(=O)c2ccc3c(c2)OCO3)cc1 [Compound 323, (3R,3aS,6aR)-Hexahydrofuro[2,3-b]furan-3-yl (1S,2R)-3-[(1,3-benzodioxol-5-ylsulfonyl)(isobutyl)amino]-2-hydroxy-1-[4-(2-{[(methylamino)carbonyl]oxy}ethoxy)benzyl]propylcarbamate] | 1 to 10 | 1 to 10 | 1 to 10 |  |
| CNC(=O)CCCOc1ccc(C[C@H](NC(=O)OC2CO[C@H]3OCC[C@@H]23)[C@H](O)CN(CC(C)C)S(=O)(=O)c2ccc3c(c2)OCO3)cc1 (stereo in doubt) [Compound 286, (3R,3aS,6aR)-hexahydrofuro[2,3-b]furan-3-yl (1S,2R)-3-[(1,3-benzodioxol-5-ylsulfonyl)(isobutyl)amino]-2-hydroxy-1-{4-[4-(methylamino)-4-oxobutoxy]benzyl}propylcarbamate] | 10 to 100 | 1 to 10 | 1 to 10 |  |
| CC(C)CN(C[C@@H](O)[C@H](Cc1ccc(OCc2noc(C(C)(C)C)n2)cc1)NC(=O)O[C@H]1CO[C@H]2OCC[C@H]21)S(=O)(=O)c1ccc2c(c1)OCO2 [Compound 370] | < 1 | 1 to 10 | 1 to 10 |  |
| CC(C)CN(C[C@@H](O)[C@H](Cc1ccc(OCCCNS(C)(=O)=O)cc1)NC(=O)O[C@H]1CO[C@H]2OCC[C@H]21)S(=O)(=O)c1ccc2c(c1)OCO2 [Compound 251] |  |  |  | IC50 ([1]; wild type HIV-1 virus, MT4 cells, read-out: Wildtype virus - IC50): 10 to 100 nM; IC50 ([2]; EP13 multi protease inhibitor resistant virus, MT4 cells, read-out: EP13 mutant IC50): 1 to 10 nM; IC50 ([3]; D545701-14 multi protease inhibitor resistant virus, MT4 cells, read-out: D545701-14 mutant - IC50): 1 to 10 nM |
| CC(C)CN(C[C@@H](O)[C@H](Cc1ccc(Oc2c(C(=O)O)cc([N+](=O)[O-])cc2[N+](=O)[O-])cc1)NC(=O)O[C@H]1CO[C@H]2OCC[C@H]21)S(=O)(=O)c1ccc2c(c1)OCO2 [Compound 334, 2-(4-{(2S,3R)-2-({[(3R,3aS,6aR)-hexahydrofuro[2,3-b]furan-3-yloxy]carbonyl}amino)-4-[(1,3-benzodioxol-5-ylsulfonyl)(isobutyl)amino]-3-hydroxybutyl}phenoxy)-3,5-dinitrobenzoic Acid] | 1 to 10 | 1 to 10 | 1 to 10 |  |
| CC(C)CN(C[C@@H](O)[C@H](Cc1ccc(Oc2ccc([N+](=O)[O-])cc2[N+](=O)[O-])cc1)NC(=O)O[C@H]1CO[C@H]2OCC[C@H]21)S(=O)(=O)c1ccc2c(c1)OCO2 [Compound 336, (3R,3aS,6aR)-hexahydrofuro[2,3-b]furan-3-yl (1S,2R)-3-[(1,3-benzodioxol-5-ylsulfonyl)(isobutyl)amino]-1-[4-(2,4-dinitrophenoxy)benzyl]-2-hydroxypropylcarbamate] | 1 to 10 | 1 to 10 | 1 to 10 |  |
| CC(C)CN(C[C@@H](O)[C@H](Cc1ccc(OCCCC(=O)N(C)C)cc1)NC(=O)OC1CO[C@H]2OCC[C@@H]12)S(=O)(=O)c1ccc2c(c1)OCO2 (stereo in doubt) [Compound 287, (3R,3aS,6aR)-hexahydrofuro[2,3-b]furan-3-yl (1S,2R)-3-[(1,3-benzodioxol-5-ylsulfonyl)(isobutyl)amino]-1-{4-[4-(dimethylamino)-4-oxobutoxy]benzyl}-2-hydroxypropylcarbamate] | 1 to 10 | 1 to 10 | 1 to 10 |  |
| CC(C)CN(C[C@@H](O)[C@H](Cc1ccc(OCc2cccc(C#N)c2)cc1)NC(=O)O[C@H]1CO[C@H]2OCC[C@H]21)S(=O)(=O)c1cccc(N)c1 [Compound 289] | 1 to 10 | 1 to 10 | 1 to 10 |  |
| CC(C)CN(C[C@@H](O)[C@H](Cc1ccc(OCCCN(C)C)cc1)NC(=O)O[C@H]1CO[C@H]2OCC[C@H]21)S(=O)(=O)c1ccc2c(c1)OCO2 [Compound 274, (3R,3aS,6aR)-hexahydrofuro[2,3-b]furan-3-yl (1S,2R)-3-[(1,3-benzodioxol-5-ylsulfonyl)(isobutyl)amino]-1-{4-[3-(dimethylamino)propoxy]benzyl}-2-hydroxypropylcarbamate] | 10 to 100 | 1 to 10 | 10 to 100 |  |
| CC(C)CN(C[C@@H](O)[C@H](Cc1ccc(OCc2cccnc2)cc1)NC(=O)O[C@H]1CO[C@H]2OCC[C@H]21)S(=O)(=O)c1ccc2c(c1)OCO2 [Compound 52, Bis-THF Methylenedioxybenzenesulfonamide 3-picolyl Tethered Product] | 10 to 100 | 1 to 10 | 1 to 10 | IC50 ([1]; Human immunodeficiency virus 1, MT4, 120 h, MT-4 cells, HIV-1 strain IIIB, 5 days, read-out: IC50 (Antiviral Activity of Compounds of the Invention)): 1 to 10 nM |
| CC(C)CN(C[C@@H](O)[C@H](Cc1ccc(Oc2nc(F)c(F)c(F)c2F)cc1)NC(=O)O[C@H]1CO[C@H]2OCC[C@H]21)S(=O)(=O)c1ccc2c(c1)OCO2 [Compound 332, (3R,3aS,6aR)-hexahydrofuro[2,3-b]furan-3-yl (1S,2R)-3-[(1,3-benzodioxol-5-ylsulfonyl)(isobutyl)amino]-2-hydroxy-1-{4-[(3,4,5,6-tetrafluoro-2-pyridinyl)oxy]benzyl}propylcarbamate] | 1 to 10 | 1 to 10 | 10 to 100 |  |
| CC(C)CN(C[C@@H](O)[C@H](Cc1ccc(OCCc2ccccc2)cc1)NC(=O)O[C@H]1CO[C@H]2OCC[C@H]21)S(=O)(=O)c1ccc2c(c1)OCO2 [Compound 202, (3R,3aS,6aR)hexahydrofuro[2,3-b]furan-3-yl (1S,2R)-3-[(1,3-benzodioxol-5-ylsulfonyl)(isobutyl)amino]-2-hydroxy-1-[4-(phenethyloxy)benzyl]propylcarbamate] | < 1 | < 1 | 1 to 10 |  |
| CC(C)CN(C[C@@H](O)[C@H](Cc1ccc(OCCCNC(=O)c2ccoc2)cc1)NC(=O)O[C@H]1CO[C@H]2OCC[C@H]21)S(=O)(=O)c1ccc2c(c1)OCO2 [Compound 261, (3R,3aS,6aR)-hexahydrofuro[2,3-b]furan-3-yl (1S,2R)-3-[(1,3-benzodioxol-5-ylsulfonyl)(isobutyl)amino]-1-{4-[3-(3-furoylamino)propoxy]benzyl}-2-hydroxypropylcarbamate] | 1 to 10 | 1 to 10 | 1 to 10 |  |
| CC(C)CN(C[C@@H](O)[C@H](Cc1ccc(OC(=N)N(C)C)cc1)NC(=O)O[C@H]1CO[C@H]2OCC[C@H]21)S(=O)(=O)c1ccc2c(c1)OCO2 [Compound 331, (3R,3aS,6aR)-Hexahydrofuro[2,3-b]furan-3-yl (1S,2R)-3-[(1,3-benzodioxol-5-ylsulfonyl)(isobutyl)amino]-1-{4-[(dimethylamino) (imino)methoxy]benzyl}-2-hydroxypropylcarbamate] | 10 to 100 | 10 to 100 | 10 to 100 |  |
